Target: T1, HDAC6 (Homo sapiens, UniProt Q9UBN7)
T1 sequence (Q9UBN7 1-1215): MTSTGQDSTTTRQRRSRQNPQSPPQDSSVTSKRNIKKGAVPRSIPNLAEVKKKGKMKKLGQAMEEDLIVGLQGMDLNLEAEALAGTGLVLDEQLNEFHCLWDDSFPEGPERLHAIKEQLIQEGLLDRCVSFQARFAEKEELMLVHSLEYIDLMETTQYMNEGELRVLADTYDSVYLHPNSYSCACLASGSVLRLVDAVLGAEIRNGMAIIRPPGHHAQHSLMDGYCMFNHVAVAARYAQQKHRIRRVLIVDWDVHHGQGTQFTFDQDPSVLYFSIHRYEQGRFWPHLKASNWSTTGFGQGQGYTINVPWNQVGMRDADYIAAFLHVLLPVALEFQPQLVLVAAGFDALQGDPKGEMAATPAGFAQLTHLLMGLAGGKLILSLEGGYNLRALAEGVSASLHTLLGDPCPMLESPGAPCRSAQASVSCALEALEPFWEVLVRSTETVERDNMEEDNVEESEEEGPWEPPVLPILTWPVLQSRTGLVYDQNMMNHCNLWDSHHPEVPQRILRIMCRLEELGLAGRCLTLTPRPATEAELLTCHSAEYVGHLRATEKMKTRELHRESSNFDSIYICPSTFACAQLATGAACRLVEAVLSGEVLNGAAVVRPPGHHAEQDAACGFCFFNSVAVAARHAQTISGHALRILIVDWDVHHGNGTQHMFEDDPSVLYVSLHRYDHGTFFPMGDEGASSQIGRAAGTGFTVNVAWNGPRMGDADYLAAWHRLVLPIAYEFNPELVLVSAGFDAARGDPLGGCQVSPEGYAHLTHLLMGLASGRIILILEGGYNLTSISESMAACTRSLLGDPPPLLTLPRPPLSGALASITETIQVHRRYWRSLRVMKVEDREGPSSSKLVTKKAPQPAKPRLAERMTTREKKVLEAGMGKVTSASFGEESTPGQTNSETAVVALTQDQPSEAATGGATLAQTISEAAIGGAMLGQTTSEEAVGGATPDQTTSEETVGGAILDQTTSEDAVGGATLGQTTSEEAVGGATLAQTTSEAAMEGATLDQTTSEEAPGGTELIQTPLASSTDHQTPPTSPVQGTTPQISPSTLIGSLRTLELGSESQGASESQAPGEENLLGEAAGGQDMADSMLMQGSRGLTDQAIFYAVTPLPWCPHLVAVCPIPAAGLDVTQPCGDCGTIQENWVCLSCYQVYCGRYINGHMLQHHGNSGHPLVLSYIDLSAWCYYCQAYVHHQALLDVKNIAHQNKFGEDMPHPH
Experiment: In vitro cell-based assay: acetylation levels of Alpha-Tubulin by Western Blot in MOLP8 cells
Design: endogenous in cells; host or cells: MOLP8
Details: 18 h, acetyl-alpha-tubulin relative band intensity, ACY-1215 1 μM = 100%
Procedure: In Vitro Cell-Based Assay
In order to determine the cellular activity of HDAC6 upon treatment with HDAC6 inhibitors, acetylation levels of Alpha-Tubulin (a HDAC6-specific substrate) were measured by Western Blot. For this, MOLP8 cells were seeded in 6-well plates at a cell density of 500.000 cells/well and treated with the selected compounds at 5 and 1 μM for 18 h at 37° C. and 5% CO2 in a humidified tissue culture incubator. Consecutively, cell pellets were collected and whole protein extracts prepared using RIPA buffer (SIGMA) supplemented with 1× protease inhibitors (cOmplete mini, Roche). Protein concentration was determined with Bradford's reagent (Bio-Rad) as per manufacturer's instructions, and 7 μg of total protein were loaded into pre-cast 10% NuPAGE Novex gels (Life Technologies). Gels were run in […] (Life Technologies) and proteins were transferred using the iBlot 2 Dry Blotting System (Life Technologies). Blots were subsequently rinsed in distilled water and stained with Ponceau S solution (SIGMA). Blots were then washed in distilled water to remove Ponceau excess and scanned with the Epson Perfection V600 Photo professional Scanner. After this, blots were de-stained and blocked in 5% milk/PBS-Tween 0.1% for 1 h at room temperature followed by incubation with anti-Acetyl-alpha Tubulin (SIGMA cat. #T7451, 1:10.000 dilution) and anti-Beta-actin (SIGMA, cat. #A5316, 1:2.000 dilution) primary antibodies in 5% milk/PBS-T 0.1%, overnight at 4° C. on a shaking platform. After incubation, blots were washed 3 times for 5 minutes each in PBS-Tween 0.5% and incubated with anti-mouse HRP-conjugated secondary antibody (Jackson Immuno Research, cat. #115-035-068) at 1:8.000 in 5% milk/PBS-Tween 0.1%, 1 h at room temperature on a shaking platform. After 3 washes of 5 minutes each with PBS-Tween 0.5% and 1 wash in PBS 1×, blots were developed with ECL Plus (GE Healthcare) and the chemiluminescent reaction imaged with the G:Box Chemi XRQ (Syngene) imaging system. WB and Ponceau images were analysed with ImageJ software, WB band intensities normalized by either total protein or Beta-actin content and made relative to ACY-1215 1 μM (equivalent to 100%). ACY-1215 is a HDAC6 inhibitor, and is also known as ricolinostat, with chemical name 2-(diphenylamino)-N-[7-(hydroxyamino)-7-oxoheptyl]-5-pyrimidinecarboxamide. Percentage of band intensities was classified as follows: […]

| Cellular activity @1 uM | Cellular activity @5 uM | SMILES |
| --- | --- | --- |
| + (50-150) | ++ (150-300) | FC(F)(F)c1nc(-c2ccnc(-c3cc4c(ccn4Cc4cccnc4)cn3)c2)no1 [Example 1av, 3-(2-(1-(Pyridin-3-ylmethyl)-1H-pyrrolo[3,2-c]pyridin-6-yl)pyridin-4-yl)-5-(trifluoromethyl)-1,2,4-oxadiazole] |
| − (<50) | + (50-150) | CCCn1cc(COC)c2cc(-c3cc(-c4noc(C(F)(F)F)n4)ccn3)ncc21 [Example 1ai, 3-(2-(3-(Methoxymethyl)-1-propyl-1H-pyrrolo[2,3-c]pyridin-5-yl)pyridin-4-yl)-5-(trifluoromethyl)-1,2,4-oxadiazole] |
| + (50-150) | + (50-150) | COCCn1cc(-c2cn[nH]c2)c2cc(-c3cc(-c4noc(C(F)(F)F)n4)ccn3)ncc21 [Example 1as, 3-(2-(1-(2-Methoxyethyl)-3-(1H-pyrazol-4-yl)-1H-pyrrolo[2,3-c]pyridin-5-yl)pyridin-4-yl)-5-(trifluoromethyl)-1,2,4-oxadiazole] |
| − (<50) | + (50-150) | CCCCN(C(=O)CCOC)c1ccc(-c2cc(-c3noc(C(F)(F)F)n3)ccn2)nc1 [Example 1i, N-Butyl-3-methoxy-N-(4′-(5-(trifluoromethyl)-1,2,4-oxadiazol-3-yl)-[2,2′-bipyridin]-5-yl)propanamide] |
| + (50-150) | ++ (150-300) | FC(F)(F)CN1CCC(n2ccc3cnc(-c4cc(-c5noc(C(F)(F)F)n5)ccn4)cc32)CC1 [Example 1ao, 3-(2-(1-(1-(2,2,2-Trifluoroethyl)piperidin-4-yl)-1H-pyrrolo[3,2-c]pyridin-6-yl)pyridin-4-yl)-5-(trifluoromethyl)-1,2,4-oxadiazole] |
| + (50-150) | + (50-150) | CN(CCO)CCCOc1ccc(-c2cc(-c3noc(C(F)(F)F)n3)ccn2)nc1 [Example 1ax, 2-(Methyl(3-((4′-(5-(trifluoromethyl)-1,2,4-oxadiazol-3-yl)-[2,2′-bipyridin]-5-yl)oxy)propyl)amino)ethan-1-ol] |
| − (<50) | + (50-150) | FC1(F)CCN(CCOc2ccnc(-c3cc(-c4noc(C(F)(F)F)n4)ccn3)c2)CC1 [Example 1s, 3-(4′-(2-(4,4-Difluoropiperidin-1-yl)ethoxy)-[2,2′-bipyridin]-4-yl)-5-(trifluoromethyl)-1,2,4-oxadiazole] |
| + (50-150) | + (50-150) | CCCCn1cc(CO)c2cc(-c3cc(-c4noc(C(F)(F)F)n4)ccn3)ncc21 [Example 1aj, (1-butyl-5-(4-(5-(trifluoromethyl)-1,2,4-oxadiazol-3-yl)pyridin-2-yl)-1H-pyrrolo[2,3-c]pyridin-3-yl)methanol] |
| − (<50) | ++ (150-300) | CCN(CCCOc1ccc(-c2cc(-c3noc(C(F)(F)F)n3)ccn2)nc1)CCc1ccccc1 [Example 1p, N-Ethyl-N-phenethyl-3-((4′-(5-(trifluoromethyl)-1,2,4-oxadiazol-3-yl)-[2,2′-bipyridin]-5-yl)oxy)propan-1-amine] |
| + (50-150) | + (50-150) | CN1CCC(CNC(=O)c2ccnc(-c3cc(-c4noc(C(F)(F)F)n4)ccn3)c2)CC1 [Example 1am, N-((1-Methylpiperidin-4-yl)methyl)-4′-(5-(trifluoromethyl)-1,2,4-oxadiazol-3-yl)-[2,2′-bipyridine]-4-carboxamide] |
| + (50-150) | ++ (150-300) | Cn1nc(-c2cc(-c3noc(C(F)(F)F)n3)ccn2)c2ncccc21 [Example 7a, 3-(2-(1-Methyl-1H-pyrazolo[4,3-b]pyridin-3-yl)pyridin-4-yl)-5-(trifluoromethyl)-1,2,4-oxadiazole] |
| − (<50) | + (50-150) | Cn1ccc2cc(-c3cc(-c4noc(C(F)(F)F)n4)ccn3)ncc21 [Example 1at, 3-(2-(1-Methyl-1H-pyrrolo[2,3-c]pyridin-5-yl)pyridin-4-yl)-5-(trifluoromethyl)-1,2,4-oxadiazole] |
| + (50-150) | + (50-150) | O=C(NC1CCCNC1)c1ccnc(-c2cc(-c3noc(C(F)(F)F)n3)ccn2)c1 (centres unmarked) [Example 1af, N-(Piperidin-3-yl)-4′-(5-(trifluoromethyl)-1,2,4-oxadiazol-3-yl)-[2,2′-bipyridine]-4-carboxamide] |

Continued, compound first:

| SMILES | Cellular activity @1 uM | Cellular activity @5 uM |
| --- | --- | --- |
| CCn1nc(-c2cc(-c3noc(C(F)(F)F)n3)ccn2)c2ncccc21 [Example 1aab, 3-(2-(1-Ethyl-1H-pyrazolo[4,3-b]pyridin-3-yl)pyridin-4-yl)-5-(trifiuoromethyl)-1,2,4-oxadiazole] | + (50-150) | + (50-150) |
| FC(F)(F)c1nc(-c2ccnc(-n3ncc4cccnc43)c2)no1 [Example 6, 3-(2-(1H-Pyrazolo[3,4-b]pyridin-1-yl)pyridin-4-yl)-5-(trifluoromethyl)-1,2,4-oxadiazole] | + (50-150) | + (50-150) |
| Cn1cc(Cn2ccc3cnc(-c4cc(-c5noc(C(F)(F)F)n5)ccn4)cc32)cn1 [Example 1aad, 3-(2-(1-((1-Methyl-1H-pyrazol-4-yl)methyl)-1H-pyrrolo[3,2-c]pyridin-6-yl)pyridin-4-yl)-5-(trifluoromethyl)-1,2,4-oxadiazole] | + (50-150) | ++ (150-300) |
| COCCn1nc(-c2cc(-c3noc(C(F)(F)F)n3)ccn2)c2ncccc21 [Example 1aaa, 3-(2-(1-(2-Methoxyethyl)-1H-pyrazolo[4,3-b]pyridin-3-yl)pyridin-4-yl)-5-(trifluoromethyl)-1,2,4-oxadiazole] | + (50-150) | + (50-150) |
| CN(C)CCCOc1ccc(-c2cc(-c3noc(C(F)(F)F)n3)ccn2)nc1 [Example 7, N,N-Dimethyl-3-((4′-(5-(trifluoromethyl)-1,2,4-oxadiazol-3-yl)-[2,2′-bipyridin]-5-yl)oxy)propan-1-amine] | − (<50) | + (50-150) |
| CNCCCOc1ccc(-c2cc(-c3noc(C(F)(F)F)n3)ccn2)nc1 [Example 2, N-Methyl-3-((4′-(5-(trifluoromethyl)-1,2,4-oxadiazol-3-yl)-[2,2′-bipyridin]-5-yl)oxy)propan-1-amine] | − (<50) | + (50-150) |

Reference: patent US12668591B2, “1,2,4-oxadiazole derivatives as histone deacetylase 6 inhibitors” (Oryzon Genomics, S.A., priority 2017, dated 2026)
